Reference: PMC9655899, “Inhibition of Netosis with PAD Inhibitor Attenuates Endotoxin Shock Induced Systemic Inflammation” (International Journal of Molecular Sciences, 2022)

Key:
Type in all cases: biochemical
PAD2 = biological target: T1, PAD2 (Homo sapiens, UniProt Q9Y2J8); experiment: PAD enzyme activity assay with purchased human PAD2 (BAEE colorimetric assay described for PAD4)
T1 construct: gene PADI2

mouse PAD4 = biological target: T2, mouse PAD4 (Mus musculus, UniProt Q9Z183); experiment: BAEE citrullination colorimetric assay (diacetyl monoxime, A465) with purchased enzyme, […] min preincubation
T2 construct: gene Padi4

human PAD4 = biological target: T3, human PAD4 (Homo sapiens, UniProt Q9UM07); experiment: as above
T3 construct: gene PADI4

PAD3 = biological target: T4, PAD3 (Homo sapiens, UniProt Q9ULW8); experiment: PAD enzyme activity assay with purchased human PAD3 (BAEE colorimetric assay described for PAD4)
T4 construct: gene PADI3
T4 sequence (Q9ULW8 1-664): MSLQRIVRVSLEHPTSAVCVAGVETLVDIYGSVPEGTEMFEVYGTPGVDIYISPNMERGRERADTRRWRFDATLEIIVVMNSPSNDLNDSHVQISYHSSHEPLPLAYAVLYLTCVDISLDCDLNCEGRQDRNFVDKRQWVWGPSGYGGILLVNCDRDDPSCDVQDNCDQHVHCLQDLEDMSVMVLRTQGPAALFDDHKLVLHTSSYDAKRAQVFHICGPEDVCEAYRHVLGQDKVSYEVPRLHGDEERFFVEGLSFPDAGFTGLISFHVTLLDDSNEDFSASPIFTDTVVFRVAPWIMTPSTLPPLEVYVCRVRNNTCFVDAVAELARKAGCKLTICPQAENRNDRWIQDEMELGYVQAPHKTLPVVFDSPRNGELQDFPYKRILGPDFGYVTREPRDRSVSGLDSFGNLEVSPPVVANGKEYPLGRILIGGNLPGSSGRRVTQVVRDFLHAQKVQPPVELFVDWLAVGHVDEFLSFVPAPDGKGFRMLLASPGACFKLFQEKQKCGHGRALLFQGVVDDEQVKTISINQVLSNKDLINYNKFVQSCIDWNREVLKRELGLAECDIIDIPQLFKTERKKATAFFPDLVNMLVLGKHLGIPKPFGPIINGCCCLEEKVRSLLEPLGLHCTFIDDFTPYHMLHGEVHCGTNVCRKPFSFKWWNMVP

PAD1 = biological target: T5, PAD1 (Homo sapiens, UniProt Q9ULC6); experiment: PAD enzyme activity assay with purchased human PAD1 (BAEE colorimetric assay described for PAD4)
T5 construct: gene PADI1
T5 sequence (Q9ULC6 1-663): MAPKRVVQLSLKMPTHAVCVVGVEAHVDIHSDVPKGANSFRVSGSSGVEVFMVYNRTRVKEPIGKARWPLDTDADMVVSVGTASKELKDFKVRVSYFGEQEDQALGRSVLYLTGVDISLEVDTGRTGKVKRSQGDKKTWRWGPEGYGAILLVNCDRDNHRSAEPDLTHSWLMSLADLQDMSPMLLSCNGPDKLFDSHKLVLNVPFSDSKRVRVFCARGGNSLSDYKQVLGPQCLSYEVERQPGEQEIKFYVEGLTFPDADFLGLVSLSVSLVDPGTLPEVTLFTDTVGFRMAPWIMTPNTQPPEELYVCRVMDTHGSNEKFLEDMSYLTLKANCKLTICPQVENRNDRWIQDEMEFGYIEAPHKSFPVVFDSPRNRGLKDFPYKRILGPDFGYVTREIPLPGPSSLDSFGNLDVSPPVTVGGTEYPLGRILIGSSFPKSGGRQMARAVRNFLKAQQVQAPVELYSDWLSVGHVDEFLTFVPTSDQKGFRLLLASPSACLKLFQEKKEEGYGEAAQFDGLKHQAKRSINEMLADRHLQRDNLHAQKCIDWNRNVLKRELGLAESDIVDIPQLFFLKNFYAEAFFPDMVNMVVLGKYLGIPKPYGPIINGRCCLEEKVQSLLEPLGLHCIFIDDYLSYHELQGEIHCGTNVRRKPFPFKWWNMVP

T3 sequence (Q9UM07 whole entry): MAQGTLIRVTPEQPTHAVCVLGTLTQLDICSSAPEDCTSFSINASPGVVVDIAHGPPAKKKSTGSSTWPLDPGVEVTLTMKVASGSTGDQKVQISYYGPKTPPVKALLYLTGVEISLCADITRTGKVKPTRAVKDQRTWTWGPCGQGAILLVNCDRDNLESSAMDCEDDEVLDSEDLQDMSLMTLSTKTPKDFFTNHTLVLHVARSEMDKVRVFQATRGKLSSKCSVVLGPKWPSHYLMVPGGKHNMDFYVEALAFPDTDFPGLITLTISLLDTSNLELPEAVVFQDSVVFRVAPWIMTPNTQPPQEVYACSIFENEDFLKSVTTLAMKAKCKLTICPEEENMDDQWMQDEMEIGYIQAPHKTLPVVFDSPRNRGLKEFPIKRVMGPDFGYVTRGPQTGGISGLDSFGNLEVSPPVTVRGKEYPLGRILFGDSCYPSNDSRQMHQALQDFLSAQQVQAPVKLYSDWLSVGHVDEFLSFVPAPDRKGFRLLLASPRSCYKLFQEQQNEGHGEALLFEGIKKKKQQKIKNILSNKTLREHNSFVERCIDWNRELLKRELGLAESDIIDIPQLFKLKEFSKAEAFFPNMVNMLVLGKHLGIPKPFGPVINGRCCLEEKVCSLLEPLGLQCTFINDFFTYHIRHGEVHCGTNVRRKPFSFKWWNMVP
T2 sequence (Q9Z183 whole entry): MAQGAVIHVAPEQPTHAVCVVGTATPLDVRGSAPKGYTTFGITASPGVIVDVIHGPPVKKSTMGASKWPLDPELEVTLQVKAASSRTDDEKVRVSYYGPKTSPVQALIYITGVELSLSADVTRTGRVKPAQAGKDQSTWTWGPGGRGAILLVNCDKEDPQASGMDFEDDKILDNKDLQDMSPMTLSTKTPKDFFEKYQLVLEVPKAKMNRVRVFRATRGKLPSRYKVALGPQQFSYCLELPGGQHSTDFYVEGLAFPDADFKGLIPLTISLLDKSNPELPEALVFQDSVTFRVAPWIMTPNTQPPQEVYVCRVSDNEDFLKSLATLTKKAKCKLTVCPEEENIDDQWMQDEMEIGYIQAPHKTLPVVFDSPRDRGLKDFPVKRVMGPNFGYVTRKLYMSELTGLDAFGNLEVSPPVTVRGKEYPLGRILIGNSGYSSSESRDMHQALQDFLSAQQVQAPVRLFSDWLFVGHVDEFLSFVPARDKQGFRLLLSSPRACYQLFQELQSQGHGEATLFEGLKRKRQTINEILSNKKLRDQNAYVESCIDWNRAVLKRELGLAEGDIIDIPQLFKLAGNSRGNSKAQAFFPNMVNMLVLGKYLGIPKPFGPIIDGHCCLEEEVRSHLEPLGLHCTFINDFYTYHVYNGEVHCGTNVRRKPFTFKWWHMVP
T1 sequence (Q9Y2J8 whole entry): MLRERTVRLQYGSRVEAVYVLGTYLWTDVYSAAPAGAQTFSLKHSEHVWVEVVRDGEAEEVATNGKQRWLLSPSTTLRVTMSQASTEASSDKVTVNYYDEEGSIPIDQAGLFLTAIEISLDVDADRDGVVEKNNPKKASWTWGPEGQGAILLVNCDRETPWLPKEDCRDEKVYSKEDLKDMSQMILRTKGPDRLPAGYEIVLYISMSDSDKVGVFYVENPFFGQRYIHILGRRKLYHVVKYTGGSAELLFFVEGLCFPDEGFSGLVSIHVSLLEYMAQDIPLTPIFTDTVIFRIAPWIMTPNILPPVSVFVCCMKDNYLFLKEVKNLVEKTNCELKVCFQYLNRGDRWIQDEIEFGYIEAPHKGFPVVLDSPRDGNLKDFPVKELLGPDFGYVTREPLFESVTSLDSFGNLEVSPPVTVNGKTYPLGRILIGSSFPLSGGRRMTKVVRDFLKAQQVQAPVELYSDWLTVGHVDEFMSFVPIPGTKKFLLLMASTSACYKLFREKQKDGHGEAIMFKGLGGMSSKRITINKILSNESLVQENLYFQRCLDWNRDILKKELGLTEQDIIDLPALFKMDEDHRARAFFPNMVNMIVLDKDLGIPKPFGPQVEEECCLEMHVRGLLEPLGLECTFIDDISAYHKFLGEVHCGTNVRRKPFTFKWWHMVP

## CN(C)c1ccc2cc(C(=O)N[C@@H](CCCNC(=N)CCl)C(=O)NCc3ccccc3)ccc2c1 [YW3-56]
PAD2
  IC50: 6340 nM
Mouse PAD4
  IC50: 2540 nM
Human PAD4
  IC50: 1190 nM
PAD3
  IC50: 53400 nM
PAD1
  IC50: 1450 nM
